From PMC3914206

What was measured:
Assay type in all cases: binding
Conditions in all cases: Compound Concentration 10 µM
panel of 442 kinases [1] = biological target: T1, panel of 442 kinases (Homo sapiens, UniProt O14733)
T1 construct: purchased KINOMEscan
T1 sequence (O14733 1-419): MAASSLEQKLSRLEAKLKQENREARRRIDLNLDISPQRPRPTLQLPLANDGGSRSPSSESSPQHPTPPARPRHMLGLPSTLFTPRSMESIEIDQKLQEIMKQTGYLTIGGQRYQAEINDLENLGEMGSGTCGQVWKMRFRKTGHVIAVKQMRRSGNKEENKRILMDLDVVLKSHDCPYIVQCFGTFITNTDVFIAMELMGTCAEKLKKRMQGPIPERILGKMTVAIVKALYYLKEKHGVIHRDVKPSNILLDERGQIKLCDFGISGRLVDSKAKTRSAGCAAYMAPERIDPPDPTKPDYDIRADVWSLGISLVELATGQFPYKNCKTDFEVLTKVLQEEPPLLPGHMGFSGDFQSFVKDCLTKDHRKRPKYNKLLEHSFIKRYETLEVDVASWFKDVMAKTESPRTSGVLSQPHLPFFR
Source text: (§1) We assessed the selectivity of members of this scaffold using the KINOMEscan methodology across a near comprehensive panel of 442 kinases [[18,27]].

panel of 442 kinases [2] = biological target: T2, panel of 442 kinases (Homo sapiens, UniProt Q15303)
T2 construct: purchased KINOMEscan
Source text: as §1

panel of 442 kinases [3] = biological target: T3, panel of 442 kinases (Homo sapiens, UniProt P36507)
T3 construct: purchased KINOMEscan
Source text: as §1

T3 sequence (P36507 whole entry): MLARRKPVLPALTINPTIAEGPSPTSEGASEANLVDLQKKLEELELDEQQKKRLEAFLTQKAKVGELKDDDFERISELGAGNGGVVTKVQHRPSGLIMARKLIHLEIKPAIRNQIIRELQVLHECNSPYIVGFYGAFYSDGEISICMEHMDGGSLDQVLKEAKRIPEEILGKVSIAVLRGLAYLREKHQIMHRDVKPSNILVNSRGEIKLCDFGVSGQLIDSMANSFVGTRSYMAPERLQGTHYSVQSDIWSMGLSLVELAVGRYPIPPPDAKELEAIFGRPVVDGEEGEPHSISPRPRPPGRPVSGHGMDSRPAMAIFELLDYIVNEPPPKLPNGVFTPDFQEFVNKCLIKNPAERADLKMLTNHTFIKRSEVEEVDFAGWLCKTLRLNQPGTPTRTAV
T2 sequence (Q15303 26-1308): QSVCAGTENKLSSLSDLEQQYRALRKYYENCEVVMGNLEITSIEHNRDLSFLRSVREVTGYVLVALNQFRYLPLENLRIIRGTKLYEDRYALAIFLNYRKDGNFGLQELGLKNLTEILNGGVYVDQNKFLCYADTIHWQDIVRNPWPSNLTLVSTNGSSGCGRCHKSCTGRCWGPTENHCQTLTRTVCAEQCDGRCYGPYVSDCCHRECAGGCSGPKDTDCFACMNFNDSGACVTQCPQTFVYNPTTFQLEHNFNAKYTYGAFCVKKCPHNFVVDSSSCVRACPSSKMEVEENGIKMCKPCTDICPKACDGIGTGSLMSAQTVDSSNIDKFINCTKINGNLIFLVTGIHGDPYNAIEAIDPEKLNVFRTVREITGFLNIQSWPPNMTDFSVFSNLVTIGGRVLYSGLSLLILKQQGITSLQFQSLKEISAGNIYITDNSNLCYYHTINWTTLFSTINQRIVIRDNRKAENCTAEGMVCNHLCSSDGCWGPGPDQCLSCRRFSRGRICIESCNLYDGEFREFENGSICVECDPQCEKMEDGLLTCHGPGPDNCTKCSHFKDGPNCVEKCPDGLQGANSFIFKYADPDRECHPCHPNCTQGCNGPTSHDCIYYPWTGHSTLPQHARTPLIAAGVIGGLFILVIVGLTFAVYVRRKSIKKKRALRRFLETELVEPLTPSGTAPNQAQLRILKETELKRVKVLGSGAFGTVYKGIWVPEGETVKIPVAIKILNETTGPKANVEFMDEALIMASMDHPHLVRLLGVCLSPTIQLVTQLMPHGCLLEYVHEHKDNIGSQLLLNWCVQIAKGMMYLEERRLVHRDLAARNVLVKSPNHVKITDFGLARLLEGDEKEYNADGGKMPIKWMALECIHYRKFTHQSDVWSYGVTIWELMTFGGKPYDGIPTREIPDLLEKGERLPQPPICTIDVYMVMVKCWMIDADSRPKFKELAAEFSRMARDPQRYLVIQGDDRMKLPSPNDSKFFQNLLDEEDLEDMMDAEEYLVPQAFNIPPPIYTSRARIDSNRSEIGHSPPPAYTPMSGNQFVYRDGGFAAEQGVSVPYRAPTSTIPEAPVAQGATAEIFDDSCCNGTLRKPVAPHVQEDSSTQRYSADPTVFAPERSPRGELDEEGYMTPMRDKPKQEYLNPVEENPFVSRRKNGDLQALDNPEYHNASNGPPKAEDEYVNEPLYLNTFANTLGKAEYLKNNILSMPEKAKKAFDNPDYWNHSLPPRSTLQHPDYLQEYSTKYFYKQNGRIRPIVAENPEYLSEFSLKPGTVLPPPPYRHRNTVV

In the case of `COc1cc(C(=O)N2CCC(N3CCN(C)CC3)CC2)ccc1Nc1ncc2c(n1)N(C1CCCC1)c1ccccc1C(=O)N2C` [Compound 25, 11-cyclopentyl-2-((2-methoxy-4-(4-(4-methylpiperazin-1-yl)piperidine-1-carbonyl)phenyl)amino)-5-methyl-5H-benzo[e]pyrimido[5,4-b][1,4]diazepin-6(11H)-one], the “KINOMEscan: MKK7” value (panel of 442 kinases [1]) is reported as 100, the “KINOMEscan: ERBB4” value (panel of 442 kinases [2]) is reported as 100 and the “KINOMEscan: MEK2” value (panel of 442 kinases [3]) is reported as 66.
In the case of `CCOc1cc(C(=O)N2CCC(N3CCN(C)CC3)CC2)ccc1Nc1ncc2c(n1)N(C1CCCC1)c1ccccc1C(=O)N2C` [Compound 26], the “KINOMEscan: MKK7” value (panel of 442 kinases [1]) is reported as 88, the “KINOMEscan: ERBB4” value (panel of 442 kinases [2]) is reported as 100 and the “KINOMEscan: MEK2” value (panel of 442 kinases [3]) is reported as 89.
With `COc1cc(C(=O)N2CCC(N3CCN(C)CC3)CC2)ccc1Nc1ncc2c(n1)N(C)c1ccccc1C(=O)N2C` [15 (LRRK2-IN-1)] the “KINOMEscan: MKK7” value (panel of 442 kinases [1]) was 100, the “KINOMEscan: ERBB4” value (panel of 442 kinases [2]) was 100 and the “KINOMEscan: MEK2” value (panel of 442 kinases [3]) was 99.
